{"source": "patent US20250002492A1", "about": "“COMPOSITIONS OF FOLATE ABSORPTION INHIBITORS AND METHODS THEREOF” (THE TEXAS A&M UNIVERSITY SYSTEM, priority 2023, published 2025)", "key": {"[1]": {"tested_on": "S. cerevisiae strain BY4742", "experiment": "Replicative lifespan assay in yeast", "assay_type": "cell-based", "description": "The assays were performed in the standard S. cerevisiae strain BY4742 (MATα his3Δ1 leu2Δ0 lys2Δ0 ura3Δ0) on solid rich undefined media (YPD; 1% w/v yeast extract, 2% W/v peptone, 2% W/v dextrose, 2% w/v agar).\n(§1) In the instant example, methotrexate (MTX), or the ATIC inhibitor (ATIC-Inh), was dissolved in dimethylsulfoxide (DMSO) and used at the final concentrations shown in FIGS. 2B-2D. The cell size measurements shown in FIG. 3 were also done in strain BY4742 in YPD."}, "[2]": {"tested_on": "S. cerevisiae strain BY4742", "experiment": "Cell size measurement in yeast (Z2 Channelyzer)", "assay_type": "cell-based", "settings": "from 47 fL", "description": "as §1\nBriefly, overnight cultures were diluted to about 5×10^5 cells/mL in fresh media, allowed to proliferate for 2-3 h at 30° C., and then methotrexate was added at the indicated final concentrations. 4-5 h later, cell size was measured with a Z2 Channelyzer."}, "[3]": {"tested_on": "yeast cells", "experiment": "Yeast cell proliferation", "assay_type": "cell-based, S. cerevisiae", "settings": "low doses (0.5-10 μM); not shown"}, "[4]": {"tested_on": "C. elegans strain N2", "experiment": "Lifespan assay in worms", "assay_type": "in vivo", "excerpt": "The ability of pharmacological or other interventions to extend the lifespan of different organisms is often conserved. For the instant example, the disclosed compounds can be tested for their ability to extend the lifespan of the worm model system Caenorhabditis elegans (N2 strain) [see, e.g., PMID: 19488025]. The organisms can be first exposed to the compounds as adults, 2-3 days after the egg stage until their death, on solid media containing the compounds at the desired concentration. The temperature can be kept constant at 20° C. throughout the assays. The bacteria used as food for the worms (Escherichia coli strain OP-50) can be dead (e.g., killed by lethal doses of ultraviolet radiation) to ensure that any effects on lifespan are not indirect, mediated through bacterial metabolism.\nThe assays were performed at 20° C. using C. elegans strain N2 and a bacterial strain (OP50) commonly used as food for the worms. Briefly, the assays were performed on solid agar nematode growth media (NGM) plates prepared fresh before each experiment. The bacterial lawn was exposed twice to a UV dose of 120 mJ/cm^2 using a UVC-515 Ultraviolet Multilinker (Ultra-Lum, Inc.). Streaking these UV-exposed bacteria to fresh LB agar plates (1% w/v tryptone, 0.5% w/v yeast extract, 1% w/v sodium chloride) produced no visible colonies. Methotrexate, or the ATIC inhibitor, was first dissolved in DMSO and then added to the media used to prepare the plates after autoclaving (the media were kept in a 50° C. water bath until the plates were poured). Mock-treated control plates contained only DMSO. At the start of each experiment, a sufficient number of eggs were collected from plates without any drugs and then placed on plates containing the indicated doses of each compound tested. After hatching and progression to the adult stage, animals were transferred to new plates (marked as the start of the lifespan assay) containing the drug tested and fluorodeoxyuridine (FUDR; dissolved in water), added at 50 μM to block hatching of new animals. The plates were scored at least every other day until all the worms died. If an animal responded to gentle touch, it was scored as alive, otherwise a death was recorded, and the animal was removed from the plate. Worms were transferred to fresh plates as needed (e.g., if there was evidence of microbial contamination, dryness/cracks on the agar surface, consumption of the bacterial lawn, or hatching of new animals that escaped the FUDR block). The reported lifespans were compiled from several independent experiments done over several months (9-10 months for the methotrexate experiments and 4-5 months for the ATIC inhibitor), each scored by multiple individuals (4-5 persons per experiment). No experiments were excluded from the analysis."}, "[5]": {"tested_on": "C. elegans", "settings": "220 μM, treated at the adult stage; cited from earlier work"}, "[6]": {"tested_on": "Swiss mice", "settings": "0-10 ppm in the diet in alternating weeks, male and female, 7 to 120 weeks of age; 5 of the 8 conditions tested; one case p=0.04; cited from earlier work"}, "[7]": {"tested_on": "mice", "settings": "cited from earlier work"}}, "note": "Where two headings read alike, the source gives them in different places.", "data": [{"smiles": "CN(Cc1cnc2nc(N)nc(N)c2n1)c1ccc(C(=O)N[C@@H](CCC(=O)O)C(=O)O)cc1", "note": "[methotrexate, 4-amino-N10-methylpteroylglutamic acid]", "values": [{"measurement": "yeast replicative lifespan", "setting": "[1]; 0.5-10 μM, p<0.05 log-rank test", "result": "increased yeast replicative lifespan"}, {"measurement": "maximal lifespan extension", "setting": "[1]; dose 1 μM", "result": "~15", "unit": "%"}, {"measurement": "yeast replicative longevity", "setting": "[1]; higher concentrations (above 10 μM; 50-100 μM)", "result": "did not extend replicative longevity"}, {"measurement": "cell size", "setting": "[2]; 50 μM", "result": 56, "unit": "fL"}, {"measurement": "cell size", "setting": "[2]; 100 μM", "result": 64, "unit": "fL"}, {"measurement": "cell size", "setting": "[2]; concentrations up to 10 μM", "result": 52, "unit": "fL"}, {"measurement": "cell proliferation", "setting": "[3]", "result": "did not affect cell proliferation significantly"}, {"measurement": "lifespan extension", "setting": "[4]; 1-3 μM, continuous exposure from embryo stage until death, p<2E-14 log-rank", "result": "~15", "unit": "%"}, {"measurement": "lifespan", "setting": "[4]; higher doses 10-100 μM, not shown", "result": "did not extend lifespan"}, {"measurement": "lifespan", "setting": "[5]", "result": "did not extend their lifespan"}, {"measurement": "mean lifespan vs control group", "setting": "[6]", "result": "mean lifespan was longer than in the control group"}, {"measurement": "LD50", "setting": "[7]; 5-week-old mice", "result": 59, "unit": "mg/kg"}, {"measurement": "LD50", "setting": "[7]; 16-week-old mice", "result": 284, "unit": "mg/kg"}]}]}
